In assay [1] the test system is Escherichia coli. The assay is described as follows: Antibacterial activity against Escherichia coli ATCC 25922 at 100 ug/ml by diffusion method. Format: functional, organism-based.
Assay [2] relates to Candida albicans. As to the kind of experiment: Antifungal activity against Candida albicans ATCC 10231 by macro-broth dilution assay. Format: functional.
The test system of assay [3] is Pichia kudriavzevii. The assay is described as follows: Antifungal activity against Candida krusei ATCC 6258 by macro-broth dilution assay. Format: functional.
Assay [4] has as its system Staphylococcus aureus. As to the kind of experiment: Antibacterial activity against Staphylococcus aureus ATCC 25923 by macro-broth dilution assay. Format: functional.
In assay [5] the test system is Staphylococcus aureus. As to the kind of experiment: Antibacterial activity against methicillin-resistant Staphylococcus aureus ATCC 43300 by macro-broth dilution assay. The class given is functional. In general terms: In broth dilution the organism is exposed to a series of concentrations in liquid medium.

SMILES strings stand for the structures. Converted amounts (≈) assume the structure as drawn. The source made the active and inactive calls. The rule behind the calls is not given here.

With `Clc1ccc(Cl)c(COC(Cn2cnc3ccccc32)c2ccccc2)c1` (stereo unspecified), the result in assay [1] was inactive.

What is called MIC is the lowest concentration that inhibits growth of the organism. For `Clc1ccc(COC(Cn2ccnc2)c2ccc(Cl)cc2Cl)c(Cl)c1` (stereo unspecified) [MICONAZOLE], the MIC in assay [2] was found to be 0.19 µg/mL (≈ 0.457 µM); in assay [3], 0.78 µg/mL (≈ 1.87 µM). Moreover, the result in assay [1] was inactive.

`OC(Cn1cncn1)(Cn1cncn1)c1ccc(F)cc1F` [FLUCONAZOLE]: the values for the MIC in assay [2] and in assay [3] were 0.78 µg/mL (≈ 2.55 µM) and 25 µg/mL (≈ 81.6 µM), respectively. For the same compound, the outcome in assay [1] was inactive.

In the case of `c1ccc(COC(Cn2cnc3ccccc32)c2ccccc2)cc1` (stereo unspecified), the MIC in assay [4], in assay [5], in assay [2] and in assay [3] was 25 µg/mL (≈ 76.1 µM) in each case. Moreover, in assay [1], the outcome was inactive.

For `Clc1ccc(COC(Cn2cnc3ccccc32)c2ccccc2)cc1` (stereo unspecified), the MIC worked out at 3.12 µg/mL (≈ 8.6 µM) in assay [4], 12.5 µg/mL (≈ 34.4 µM) in assay [5], 25 µg/mL (≈ 68.9 µM) in assay [2] and 25 µg/mL (≈ 68.9 µM) in assay [3]. Also, in assay [1], the result was inactive.

With `Brc1ccc(COC(Cn2cnc3ccccc32)c2ccccc2)cc1` (stereo unspecified), the MIC in assay [4] was 3.12 µg/mL (≈ 7.66 µM); in assay [5], 12.5 µg/mL (≈ 30.7 µM); in assay [2], 25 µg/mL (≈ 61.4 µM); in assay [3], 25 µg/mL (≈ 61.4 µM). The outcome in assay [1] was inactive.

Take `O=C(O)c1cn(C2CC2)c2cc(N3CCNCC3)c(F)cc2c1=O`: the result in assay [1] was inactive.

With `Clc1cccc(Cl)c1COC(Cn1cnc2ccccc21)c1ccccc1` (stereo unspecified), the MIC in assay [4] was 3.12 µg/mL (≈ 7.85 µM); in assay [5], 6.25 µg/mL (≈ 15.7 µM); in assay [2], 12.5 µg/mL (≈ 31.5 µM); in assay [3], 12.5 µg/mL (≈ 31.5 µM). Also, the result in assay [1] was inactive.

Consider `CC1(C)S[C@@H]2[C@H](NC(=O)[C@H](N)c3ccccc3)C(=O)N2[C@H]1C(=O)O` [AMPICILLIN], for which the MIC worked out at 0.78 µg/mL (≈ 2.23 µM) in assay [4] and 25 µg/mL (≈ 71.5 µM) in assay [5]. Also, the outcome in assay [1] was inactive.

On to `Clc1ccc(COC(Cn2cnc3ccccc32)c2ccccc2)cc1Cl` (stereo unspecified), for which the MIC is 3.12 µg/mL (≈ 7.85 µM) in assay [4], 25 µg/mL (≈ 62.9 µM) in assay [5], 12.5 µg/mL (≈ 31.5 µM) in assay [2] and 25 µg/mL (≈ 62.9 µM) in assay [3]. The outcome in assay [1] was inactive.

As to `FC(F)(F)c1ccc(COC(Cn2cnc3ccccc32)c2ccccc2)cc1` (stereo unspecified), the MIC stood at 6.25 µg/mL (≈ 15.8 µM) in assay [4], 12.5 µg/mL (≈ 31.5 µM) in assay [5], 25 µg/mL (≈ 63.1 µM) in assay [2] and 12.5 µg/mL (≈ 31.5 µM) in assay [3]. Also, in assay [1], the result was inactive.

Consider `Fc1ccc(COC(Cn2cnc3ccccc32)c2ccccc2)cc1` (stereo unspecified), for which the MIC turned out to be 12.5 µg/mL (≈ 36.1 µM) in assay [4], 25 µg/mL (≈ 72.2 µM) in assay [5], 25 µg/mL (≈ 72.2 µM) in assay [2] and 25 µg/mL (≈ 72.2 µM) in assay [3]. Besides, the outcome in assay [1] was inactive.

With `Clc1ccc(COC(Cn2cnc3ccccc32)c2ccccc2)c(Cl)c1` (stereo unspecified), the MIC in assay [4] was 3.12 µg/mL (≈ 7.85 µM); in assay [5], 12.5 µg/mL (≈ 31.5 µM); in assay [2], 25 µg/mL (≈ 62.9 µM); in assay [3], 25 µg/mL (≈ 62.9 µM). The result in assay [1] was inactive.
